Experimental data: patent publication US12384800B2, “Antitumoral compounds” (priority 2017, dated 2025)

Key:
[1] = MTMD (Maximum Tolerated Multiple Dose) determination, iv weekly x 3; type: in vivo; details: mice; iv/Q7d × 3
Summary of the method: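 Female CD-1 or athymic nude mice received compound in formulation iv at different concentrations, once for MTD or weekly for three consecutive weeks for MTMD, with vehicle groups included. Clinical signs of systemic toxicity, body weight and mortality were followed up to 14 days after administration.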

HT1080 tumors = details: Day 0
Protocol: Female athymic nu/nu mice (Harlan Laboratories Models, S.L. Barcelona, Spain or Envigo, Spain) were utilized for all experiments. Animal were housed in individually ventilated cages Sealsafe® Plus, Techniplast S.P.A.), up to ten per cage on a 12-hour light-dark cycle at 21-23° C. and 40-60% humidity. […] Animals were acclimated for at least 5 days prior to tumor implantation with a tumor cell suspension.
HT1080 cells were maintained in vitro at 37° C. with 5% CO2 in Minimum Essential Medium Eagle (MEME) (Sigma-Aldrich, Co). Each animal was orthotopically implanted into gastroecnemius muscle by an intramuscular injection using a 26G needle and a 1 cc syringe at 4-6 weeks of age, with 10×10^6 HT1080 cells, suspended in serum free medium, without antibiotics.
Treatment tolerability was assessed by monitoring body weight evolution, clinical signs of systemic toxicity, as well as evidences of local damage in the injection site.
In xenograft studies with HT1080 cell line: • Total diameter (tumor+leg) measurements were determined by using digital caliper (Fowler Sylvac, S235PAT).
Treatments producing >20% lethality and/or 20% net body weight loss were considered toxic.

Q: With `COc1c(C)cc2c(c1O)[C@@H]1[C@@H]3[C@@H]4SC[C@]5(NCCc6c5oc5ccccc65)C(=O)OC[C@@H](c5c6c(c(C)c(OC(C)=O)c54)OCO6)N3[C@@H](O)[C@H](C2)N1C` [Compound 32] as the compound, how does the MTMD [1] read?
A: The MTMD was 0.5 mg/kg.

Q: What about the “Total diameter (tumor + leg)” value (HT1080 tumors) of the same compound?
A: The value was 7.5 mm.
